Where “and” joins values, the source holds several entries; their conditions need not be identical. Equal values may be shown once. Inconclusive results and toxic doses are left out.
Test system: P388 leukemia ip, CD2F1 mice, survival T/C
Test: NCI In Vivo Anticancer Drug Screen. Data for tumor model P388 Leukemia (intraperitoneal) in CD2F1 (CDF1) mice
Conditions: endpoint: median survival time, higher = longer survival
Method in brief: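 Mice carrying the transplanted tumor received test compound or vehicle. Survival was recorded in each group, and the value is the treated-group measurement divided by that of the vehicle-treated control group.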

## O=C(O)CCCc1ccc(N(CCCl)CCCl)cc1
dose: 1.0 mg/kg/injection, schedule: Q01DX005 (ip), vehicle: saline with Tween-80
  T/C: 106 % of control
dose: 1.0 mg/kg/injection, schedule: Q03HX024 (ip), vehicle: saline
  T/C: 109 % of control
dose: 1.25 mg/kg/injection, schedule: Q01DX005 (ip), vehicle: saline with Tween-80
  T/C: 113 % of control and 119 % of control and 121 % of control
dose: 1.3 mg/kg/injection, schedule: Q01DX009 (ip), vehicle: saline + alcohol
  T/C: 117 % of control
dose: 2.0 mg/kg/injection, schedule: Q01DX005 (ip), vehicle: saline with Tween-80
  T/C: 113 % of control
dose: 2.0 mg/kg/injection, schedule: Q03HX016 (ip), vehicle: saline
  T/C: 123 % of control
dose: 2.0 mg/kg/injection, schedule: Q03HX024 (ip), vehicle: saline
  T/C: 163 % of control
dose: 2.0 mg/kg/injection, schedule: Q04DX003 (ip), vehicle: Klucel (hydroxypropylcellulose) (HPC)
  T/C: 110 % of control
dose: 2.2 mg/kg/injection, schedule: Q01DX009 (ip), vehicle: saline + alcohol
  T/C: 120 % of control
dose: 2.59 mg/kg/injection, schedule: Q04DX002 (ip), vehicle: saline with Tween-80
  T/C: 114 % of control
dose: 3.24 mg/kg/injection, schedule: Q01DX009 (ip), vehicle: Klucel (hydroxypropylcellulose) (HPC)
  T/C: 160 % of control
dose: 3.6 mg/kg/injection, schedule: Q01DX009 (ip), vehicle: saline + alcohol
  T/C: 115 % of control
dose: 3.75 mg/kg/injection, schedule: Q01DX009 (ip), vehicle: Klucel (hydroxypropylcellulose) (HPC)
  T/C: 118 % of control
dose: 4.0 mg/kg/injection, schedule: Q01DX009 (ip), vehicle: saline
  T/C: 120 % of control
dose: 4.0 mg/kg/injection, schedule: Q01DX009 (sc), vehicle: saline
  T/C: 118 % of control
dose: 4.0 mg/kg/injection, schedule: Q03HX008 (ip), vehicle: saline
  T/C: 150 % of control
dose: 4.0 mg/kg/injection, schedule: Q03HX016 (ip), vehicle: saline
  T/C: 204 % of control
dose: 4.0 mg/kg/injection, schedule: Q04DX003 (ip), vehicle: Klucel (hydroxypropylcellulose) (HPC)
  T/C: 111 % of control
dose: 4.32 mg/kg/injection, schedule: Q04DX002 (ip), vehicle: saline with Tween-80
  T/C: 119 % of control
dose: 4.5 mg/kg/injection, schedule: Q01DX009 (ip), vehicle: saline + alcohol
  T/C: 153 % of control
dose: 5.0 mg/kg/injection, schedule: Q01DX009 (ip), vehicle: saline + alcohol
  T/C: 154 % of control
dose: 5.4 mg/kg/injection, schedule: Q01DX009 (ip), vehicle: Klucel (hydroxypropylcellulose) (HPC)
  T/C: 180 % of control
dose: 6.7 mg/kg/injection, schedule: Q01DX009 (ip), vehicle: saline + alcohol
  T/C: 180 % of control
dose: 7.5 mg/kg/injection, schedule: Q01DX009 (ip), vehicle: Klucel (hydroxypropylcellulose) (HPC)
  T/C: 122 % of control
dose: 8.0 mg/kg/injection, schedule: Q01DX005 (ip), vehicle: saline with Tween-80
  T/C: 186 % of control
dose: 8.0 mg/kg/injection, schedule: Q01DX009 (ip), vehicle: saline
  T/C: 170 % of control
dose: 8.0 mg/kg/injection, schedule: Q01DX009 (sc), vehicle: saline
  T/C: 118 % of control
dose: 8.0 mg/kg/injection, schedule: Q03HX016 (ip), vehicle: saline
  T/C: 200 % of control
dose: 8.0 mg/kg/injection, schedule: Q03HX024 (ip), vehicle: saline
  T/C: 90 % of control
dose: 8.0 mg/kg/injection, schedule: Q04DX003 (ip), vehicle: saline
  T/C: 113 % of control
dose: 8.0 mg/kg/injection, schedule: Q04DX003 (ip), vehicle: water
  T/C: 113 % of control
dose: 9.0 mg/kg/injection, schedule: Q01DX009 (ip), vehicle: Klucel (hydroxypropylcellulose) (HPC)
  T/C: 152 % of control
dose: 10.0 mg/kg/injection, schedule: Q01DX009 (ip), vehicle: saline + alcohol
  T/C: 166 % of control and 172 % of control and 183 % of control
dose: 10.0 mg/kg/injection, schedule: Q01DX009 (ip), vehicle: saline with Tween-80
  T/C: 160 % of control
dose: 15.0 mg/kg/injection, schedule: Q01DX009 (ip), vehicle: Klucel (hydroxypropylcellulose) (HPC)
  T/C: 115 % of control
dose: 15.0 mg/kg/injection, schedule: Q01DX009 (ip), vehicle: saline with Tween-80
  T/C: 173 % of control
dose: 16.0 mg/kg/injection, schedule: Q01DX001 (ip), vehicle: saline
  T/C: 113 % of control
dose: 16.0 mg/kg/injection, schedule: Q01DX001 (sc), vehicle: saline
  T/C: 104 % of control
dose: 16.0 mg/kg/injection, schedule: Q01DX005 (ip), vehicle: saline with Tween-80
  T/C: 176 % of control
dose: 16.0 mg/kg/injection, schedule: Q01DX009 (sc), vehicle: saline
  T/C: 122 % of control
dose: 16.0 mg/kg/injection, schedule: Q03HX008 (ip), vehicle: saline
  T/C: 186 % of control
dose: 16.0 mg/kg/injection, schedule: Q03HX016 (ip), vehicle: saline
  T/C: 95 % of control
dose: 16.0 mg/kg/injection, schedule: Q04DX003 (ip), vehicle: Klucel (hydroxypropylcellulose) (HPC)
  T/C: 169 % of control
dose: 16.0 mg/kg/injection, schedule: Q08DX002 (ip), vehicle: saline
  T/C: 154 % of control
dose: 16.7 mg/kg/injection, schedule: Q01DX009 (ip), vehicle: saline + alcohol
  T/C: 120 % of control
dose: 20.0 mg/kg/injection, schedule: Q01DX009 (ip), vehicle: saline with Tween-80
  T/C: 187 % of control
dose: 20.0 mg/kg/injection, schedule: Q04DX002 (ip), vehicle: saline with Tween-80
  T/C: 163 % of control
dose: 27.8 mg/kg/injection, schedule: Q01DX009 (ip), vehicle: saline + alcohol
  T/C: 59 % of control
dose: 32.0 mg/kg/injection, schedule: Q01DX001 (sc), vehicle: saline
  T/C: 109 % of control
dose: 32.0 mg/kg/injection, schedule: Q04DX003 (ip), vehicle: Klucel (hydroxypropylcellulose) (HPC)
  T/C: 100 % of control
dose: 32.0 mg/kg/injection, schedule: Q04DX003 (ip), vehicle: saline
  T/C: 190 % of control
dose: 32.0 mg/kg/injection, schedule: Q04DX003 (ip), vehicle: water
  T/C: 154 % of control and 212 % of control
dose: 32.0 mg/kg/injection, schedule: Q08DX002 (ip), vehicle: saline
  T/C: 190 % of control
dose: 64.0 mg/kg/injection, schedule: Q01DX001 (sc), vehicle: saline
  T/C: 113 % of control

## COc1cccc(C(O)c2ccncc2)c1OC (configuration not stated)
dose: 25.0 mg/kg/injection, schedule: Q01DX009 (ip), vehicle: water
  T/C: 90 % of control
dose: 50.0 mg/kg/injection, schedule: Q01DX009 (ip), vehicle: water
  T/C: 90 % of control
dose: 100.0 mg/kg/injection, schedule: Q01DX009 (ip), vehicle: water
  T/C: 93 % of control
dose: 200.0 mg/kg/injection, schedule: Q01DX009 (ip), vehicle: water
  T/C: 90 % of control

## O=C(C(=O)c1ccc(C(=O)C(=O)c2ccccc2)cc1)c1ccccc1
dose: 60.0 mg/kg/injection, schedule: Q01DX005 (ip), vehicle: saline with Tween-80
  T/C: 104 % of control
dose: 120.0 mg/kg/injection, schedule: Q01DX005 (ip), vehicle: saline with Tween-80
  T/C: 93 % of control
dose: 240.0 mg/kg/injection, schedule: Q01DX005 (ip), vehicle: saline with Tween-80
  T/C: 96 % of control

## Cc1ccc(N=C(c2ccccc2)N(O)c2ccc(Cl)cc2)cc1Cl
dose: 50.0 mg/kg/injection, schedule: Q01DX005 (ip), vehicle: Klucel (hydroxypropylcellulose) (HPC)
  T/C: 100 % of control
dose: 100.0 mg/kg/injection, schedule: Q01DX005 (ip), vehicle: Klucel (hydroxypropylcellulose) (HPC)
  T/C: 97 % of control
dose: 200.0 mg/kg/injection, schedule: Q01DX005 (ip), vehicle: Klucel (hydroxypropylcellulose) (HPC)
  T/C: 94 % of control

## O=C(N=Nc1c(Cl)c(O)c2ccccc2c1O)C(F)(F)F
dose: 1.56 mg/kg/injection, schedule: Q01DX009 (ip), vehicle: saline with Tween-80
  T/C: 101 % of control
dose: 3.13 mg/kg/injection, schedule: Q01DX009 (ip), vehicle: saline with Tween-80
  T/C: 110 % of control
dose: 6.25 mg/kg/injection, schedule: Q01DX009 (ip), vehicle: saline with Tween-80
  T/C: 115 % of control

## CC(C)(O)Cc1ccc(Cl)cc1
dose: 25.0 mg/kg/injection, schedule: Q01DX009 (ip), vehicle: saline with Tween-80
  T/C: 99 % of control
dose: 50.0 mg/kg/injection, schedule: Q01DX009 (ip), vehicle: saline with Tween-80
  T/C: 105 % of control
dose: 100.0 mg/kg/injection, schedule: Q01DX009 (ip), vehicle: saline with Tween-80
  T/C: 108 % of control
dose: 200.0 mg/kg/injection, schedule: Q01DX009 (ip), vehicle: saline with Tween-80
  T/C: 105 % of control

## O=C1CC([Se]c2ccccc2)C(=O)N1 (configuration not stated)
dose: 6.25 mg/kg/injection, schedule: Q04DX003 (ip), vehicle: Klucel (hydroxypropylcellulose) (HPC)
  T/C: 99 % of control
dose: 12.5 mg/kg/injection, schedule: Q04DX003 (ip), vehicle: Klucel (hydroxypropylcellulose) (HPC)
  T/C: 102 % of control and 104 % of control
dose: 25.0 mg/kg/injection, schedule: Q04DX003 (ip), vehicle: Klucel (hydroxypropylcellulose) (HPC)
  T/C: 100 % of control and 107 % of control
dose: 50.0 mg/kg/injection, schedule: Q04DX003 (ip), vehicle: Klucel (hydroxypropylcellulose) (HPC)
  T/C: 100 % of control and 105 % of control

## O=C1C=CC(=Nc2ccc3c(c2)C(=O)c2ccccc2-3)O1
dose: 50.0 mg/kg/injection, schedule: Q01DX005 (ip), vehicle: saline with Tween-80
  T/C: 111 % of control
dose: 100.0 mg/kg/injection, schedule: Q01DX005 (ip), vehicle: saline with Tween-80
  T/C: 115 % of control
